The record followed here is patent US10081662B2, “Modified relaxin B chain peptides” (The Florey Institute of Neuroscience and Mental Health, priority 2014, dated 2018).

Data set [1] in a line: Solubility of relaxin B chain peptides in aqueous solution.
The target in data set [2] is T1, fusion protein comprising the extracellular domain of RXFP1 and the transmembrane domain of CD8 (7BP cells) (Homo sapiens, UniProt Q9HBX9).
T1 construct: the extracellular domain of RXFP1 and the transmembrane domain of CD8; expressed in transfected cells
T1 sequence (Q9HBX9 1-409 limits assumed): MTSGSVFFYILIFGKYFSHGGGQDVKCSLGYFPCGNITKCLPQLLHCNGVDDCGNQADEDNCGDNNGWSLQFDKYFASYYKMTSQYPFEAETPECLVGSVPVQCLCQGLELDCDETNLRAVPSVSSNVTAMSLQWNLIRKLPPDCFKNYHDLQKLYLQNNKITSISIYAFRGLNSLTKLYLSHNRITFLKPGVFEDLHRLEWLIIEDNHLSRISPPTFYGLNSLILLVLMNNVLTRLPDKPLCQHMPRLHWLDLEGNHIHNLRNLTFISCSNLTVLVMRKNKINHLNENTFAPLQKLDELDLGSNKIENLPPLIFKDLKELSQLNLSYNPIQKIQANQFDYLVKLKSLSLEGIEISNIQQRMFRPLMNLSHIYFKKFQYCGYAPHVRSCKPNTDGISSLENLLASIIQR
The data set is described as follows: Eu-labelled H2 relaxin competition binding to 7BP cells.

The target in data set [3] is T2, RXFP1 (Homo sapiens, UniProt Q9HBX9).
T2 construct: expressed in transfected cells; host or cells: HEK-293T
T2 sequence (Q9HBX9 1-757): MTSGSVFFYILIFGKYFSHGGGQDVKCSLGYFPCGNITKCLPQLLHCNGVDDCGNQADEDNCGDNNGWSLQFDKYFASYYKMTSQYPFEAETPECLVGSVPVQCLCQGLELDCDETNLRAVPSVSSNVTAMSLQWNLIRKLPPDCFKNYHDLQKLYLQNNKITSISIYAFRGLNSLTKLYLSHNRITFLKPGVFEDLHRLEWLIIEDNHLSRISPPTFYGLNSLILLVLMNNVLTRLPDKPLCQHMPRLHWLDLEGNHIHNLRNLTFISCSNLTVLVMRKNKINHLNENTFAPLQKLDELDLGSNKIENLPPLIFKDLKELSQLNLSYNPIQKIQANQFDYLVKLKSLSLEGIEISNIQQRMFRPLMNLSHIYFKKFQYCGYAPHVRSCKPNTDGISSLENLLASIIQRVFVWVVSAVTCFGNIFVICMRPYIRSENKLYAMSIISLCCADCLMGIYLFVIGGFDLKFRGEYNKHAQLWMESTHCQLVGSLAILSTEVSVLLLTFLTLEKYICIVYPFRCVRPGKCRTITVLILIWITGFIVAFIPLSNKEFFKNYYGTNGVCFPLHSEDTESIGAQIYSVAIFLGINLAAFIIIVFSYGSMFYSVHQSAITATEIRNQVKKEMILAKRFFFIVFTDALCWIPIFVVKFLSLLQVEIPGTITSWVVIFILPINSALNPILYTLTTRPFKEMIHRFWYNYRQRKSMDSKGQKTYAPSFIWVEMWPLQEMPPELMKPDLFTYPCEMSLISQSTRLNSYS
The experiment in a line: Eu-labelled H2 relaxin competition binding, whole HEK-293T cells stably transfected with RXFP1. As for the experimental part:
Human embryonic kidney (HEK-293T) cells stably transfected with RXFP1 were cultured in RPMI 1640 medium supplemented with 10% fetal calf serum, 100 μg/ml penicillin, 100 μg/ml streptomycin and 2 mM L-glutamine and plated into 96-well pre-coated with poly-L-lysine for whole cell binding assays. Competition binding experiments were conducted with Eu^3+-labelled H2 relaxin (as per Shabanpoor et al., 2012, Biochem Biophys Res Commun. 420, 253-256) in the absence or presence of increasing concentrations of unlabelled relaxin-2 B chain derivatives. Nonspecific binding was determined with an excess of unlabelled peptides (500 nM H2 relaxin). Fluorescent measurements were recorded at an excitation wavelength of 340 nm and emission of 614 nm on a Victor plate reader (Perkin-Elmer Inc.). […] Statistical differences in pIC50 values were analyzed using one-way analysis of variance coupled to Newman Keul's multiple comparison test for multiple group comparisons in GraphPad Prism 6.

The target of data set [4] is T2, RXFP1. The experiment in a line: cAMP reporter gene assay (pCRE β-galactosidase) in HEK-293T cells transfected with RXFP1. The format is cell-based. As for the experimental part: The ability of the relaxin-2 B chain peptide derivatives generated in Example 1 to stimulate cAMP response was also evaluated, using a cAMP reporter gene assay as described previously (Scott et al., 2006, J Biol Chem. 281, 34942-34954). HEK-293T cells co-transfected with either RXFP1 or RXFP2, or 7BP cells, and a pCRE β-galactosidase reporter plasmid were plated in 96-well plates. After 24 hours, the co-transfected cells were incubated with increasing concentrations of peptides in parallel to 10 nM of H2 relaxin or INSL3 for RXFP1- or RXFP2-transfected cells respectively. The amount of cAMP-driven β-galactosidase expression in each well was assessed with a colorimetric assay measuring absorbance at 570 nm on a microplate spectrophotometer. Ligand-induced cAMP stimulation was expressed as a percentage of maximal response of H2 relaxin or INSL3 for RXFP1 and RXFP2 cells respectively. Each data point was measured in triplicate and each experiment conducted independently at least three separate times. Statistical differences in pEC50 values were analyzed using one-way ANOVA coupled to Newman Keul's multiple comparison test for multiple group comparisons in GraphPad Prism 6.
(In a reporter assay the amount or activity of a reporter protein is the signal.)

The mark [5] stands for this setting: 7BP cells, competition with Eu-labelled H2 relaxin, n ≥ 3, read-out: 7BP Eu-H2 pKi (converted).
Where [6] appears, read: HEK-293T cells stably transfected with RXFP1, competition with Eu-labelled H2 relaxin, mean ± S.E, n ≥ 3, read-out: RXFP1 Eu-H2 pKi (converted).
[7] abbreviates: HEK-293T cells co-transfected with RXFP1 and pCRE β-galactosidase reporter, n ≥ 3, read-out: RXFP1 cAMP pEC50 (converted).

Structures are written as SMILES. Where two headings read alike, the source gives them in different places. Peptide text beside a SMILES is read from it.

Turning to `CC[C@H](C)[C@H](NC(=O)[C@H](C)NC(=O)[C@@H](NC(=O)[C@H](CCC(N)=O)NC(=O)[C@H](C)NC(=O)[C@H](CCCNC(=N)N)NC(=O)[C@@H](NC(=O)[C@H](CC(C)C)NC(=O)[C@H](CCC(=O)O)NC(=O)[C@H](CCCNC(=N)N)NC(=O)CNC(=O)[C@H](CS)NC(=O)[C@H](CC(C)C)NC(=O)[C@H](CCCCN)NC(=O)[C@@H](NC(=O)[C@@H](NC(=O)[C@H](CCC(=O)O)NC(=O)[C@H](CCC(=O)O)NC(=O)[C@H](CCSC)NC(=O)[C@H](Cc1c[nH]c2ccccc12)NC(=O)[C@H](CO)NC(=O)[C@@H](N)CC(=O)O)C(C)C)[C@@H](C)CC)C(C)C)[C@@H](C)CC)C(=O)N[C@@H](CS)C(=O)NCC(=O)N[C@@H](CCSC)C(=O)N[C@@H](CO)C(=O)N[C@H](C(=O)N[C@@H](Cc1c[nH]c2ccccc12)C(=O)N[C@@H](CO)C(N)=O)[C@@H](C)O` [H2 B chain], the “Solubility at concentration 4 mg/ml” value in data set [1] (4 mg/ml, FIG. 1) is “insoluble”. Besides, the “Aqueous solubility (in words)” value in data set [1] (aqueous solution) is listed as “insoluble in aqueous solution”.
Turning to `CC[C@H](C)[C@H](NC(=O)[C@H](C)NC(=O)[C@@H](NC(=O)[C@H](CCC(N)=O)NC(=O)[C@H](C)NC(=O)[C@H](CCCNC(=N)N)NC(=O)[C@@H](NC(=O)[C@H](CC(C)C)NC(=O)[C@H](CCC(=O)O)NC(=O)[C@H](CCCNC(=N)N)NC(=O)CNC(=O)[C@H](CO)NC(=O)[C@H](CC(C)C)NC(=O)[C@H](CCCCN)NC(=O)[C@@H](NC(=O)[C@@H](NC(C)=O)C(C)C)[C@@H](C)CC)C(C)C)[C@@H](C)CC)C(=O)N[C@@H](CO)C(=O)NCC(=O)N[C@@H](CCSC)C(=O)N[C@@H](CO)C(=O)N[C@H](C(=O)N[C@@H](Cc1c[nH]c2ccccc12)C(=O)N[C@@H](CO)C(=O)N[C@@H](CCCCN)C(=O)N[C@@H](CCCCN)C(=O)N[C@@H](CCCCN)C(=O)N[C@@H](CCCCN)C(N)=O)[C@@H](C)O` [KKKK (AcB7-29 C11.23S)] (Ac-VIKLSGRELVRAQIAISGMSTWSKKKK-NH2), the Ki in data set [2] (setting [5]) is 1.23 nM; at RXFP1 [3] (setting [6]) it was 562 nM. For the same compound, the EC50 at RXFP1 [4] (setting [7]) is 1550 nM.
On to `CC[C@H](C)[C@H](NC(=O)[C@H](C)NC(=O)[C@H](C)NC(=O)[C@H](CCC(N)=O)NC(=O)[C@H](C)NC(=O)[C@H](C)NC(=O)[C@@H](NC(=O)[C@H](CC(C)C)NC(=O)[C@H](CCC(=O)O)NC(=O)[C@H](C)NC(=O)CNC(=O)[C@H](CO)NC(=O)[C@H](CC(C)C)NC(=O)[C@H](CCCCN)NC(=O)[C@@H](NC(=O)[C@@H](NC(C)=O)C(C)C)[C@@H](C)CC)C(C)C)C(=O)N[C@@H](CO)C(=O)NCC(=O)N[C@@H](CCSC)C(=O)N[C@@H](CO)C(=O)N[C@H](C(=O)N[C@@H](Cc1c[nH]c2ccccc12)C(=O)N[C@@H](CO)C(=O)N[C@@H](CCCCN)C(=O)N[C@@H](CCCNC(=N)N)C(=O)N[C@@H](CO)C(=O)N[C@@H](CC(C)C)C(N)=O)[C@@H](C)O` [R13/17A. I20A (AcB7-33 C11.23S)] (Ac-VIKLSGAELVAAQAAISGMSTWSKRSL-NH2), for which the Ki is 2880 nM in data set [2] and more than 10000 nM at RXFP1 [3]. At RXFP1 [4], this compound showed an EC50 of more than 10000 nM.
Regarding `CC[C@H](C)[C@H](NC(=O)[C@H](C)NC(=O)[C@@H](NC(=O)[C@H](CCC(N)=O)NC(=O)[C@H](C)NC(=O)[C@H](CCCNC(=N)N)NC(=O)[C@@H](NC(=O)[C@H](CC(C)C)NC(=O)[C@H](CCC(=O)O)NC(=O)[C@H](C)NC(=O)CNC(=O)[C@H](CO)NC(=O)[C@H](CC(C)C)NC(=O)[C@H](CCCCN)NC(=O)[C@@H](NC(=O)[C@@H](NC(C)=O)C(C)C)[C@@H](C)CC)C(C)C)[C@@H](C)CC)C(=O)N[C@@H](CO)C(=O)NCC(=O)N[C@@H](CCSC)C(=O)N[C@@H](CO)C(=O)N[C@H](C(=O)N[C@@H](Cc1c[nH]c2ccccc12)C(=O)N[C@@H](CO)C(=O)N[C@@H](CCCCN)C(=O)N[C@@H](CCCNC(=N)N)C(=O)N[C@@H](CO)C(=O)N[C@@H](CC(C)C)C(N)=O)[C@@H](C)O` [R13A (AcB7-33 C11.23S)] (Ac-VIKLSGAELVRAQIAISGMSTWSKRSL-NH2), the Ki in data set [2] (setting [5]) was 1740 nM; at RXFP1 [3] (setting [6]) it was more than 10000 nM. Besides, at RXFP1 [4] (setting [7]), the EC50 was more than 10000 nM.
On to `CC[C@H](C)[C@H](NC(=O)[C@H](C)NC(=O)[C@@H](NC(=O)[C@H](CCC(N)=O)NC(=O)[C@H](C)NC(=O)[C@H](C)NC(=O)[C@@H](NC(=O)[C@H](CC(C)C)NC(=O)[C@H](CCC(=O)O)NC(=O)[C@H](CCCNC(=N)N)NC(=O)CNC(=O)[C@H](CO)NC(=O)[C@H](CC(C)C)NC(=O)[C@H](CCCCN)NC(=O)[C@@H](NC(=O)[C@@H](NC(C)=O)C(C)C)[C@@H](C)CC)C(C)C)[C@@H](C)CC)C(=O)N[C@@H](CO)C(=O)NCC(=O)N[C@@H](CCSC)C(=O)N[C@@H](CO)C(=O)N[C@H](C(=O)N[C@@H](Cc1c[nH]c2ccccc12)C(=O)N[C@@H](CO)C(=O)N[C@@H](CCCCN)C(=O)N[C@@H](CCCNC(=N)N)C(=O)N[C@@H](CO)C(=O)N[C@@H](CC(C)C)C(N)=O)[C@@H](C)O` [R17A (AcB7-33 C11.23S)] (Ac-VIKLSGRELVAAQIAISGMSTWSKRSL-NH2), for which the figures for the Ki (in data set [2] (setting [5]); at RXFP1 [3] (setting [6])) were 977 nM and more than 10000 nM, respectively. For the same compound, the EC50 at RXFP1 [4] (setting [7]) was more than 10000 nM.
For the compound `CC[C@H](C)[C@H](NC(=O)[C@H](C)NC(=O)[C@@H](NC(=O)[C@H](CCC(N)=O)NC(=O)[C@H](C)NC(=O)[C@H](CCCNC(=N)N)NC(=O)[C@@H](NC(=O)[C@H](CC(C)C)NC(=O)[C@H](CCC(=O)O)NC(=O)[C@H](CCCNC(=N)N)NC(=O)CNC(=O)[C@H](CO)NC(=O)[C@H](CC(C)C)NC(=O)[C@H](CCCCN)NC(=O)[C@@H](NC(=O)[C@@H](NC(C)=O)C(C)C)[C@@H](C)CC)C(C)C)[C@@H](C)CC)C(=O)N[C@@H](CO)C(=O)NCC(=O)N[C@@H](CCSC)C(=O)N[C@@H](CO)C(=O)N[C@H](C(=O)N[C@@H](Cc1c[nH]c2ccccc12)C(=O)N[C@@H](CO)C(=O)N[C@@H](CCCCN)C(=O)N[C@@H](CCCNC(=N)N)C(=O)N[C@@H](CO)C(=O)N[C@@H](CC(C)C)C(N)=O)[C@@H](C)O` [AcB7-33 C11.23S] (Ac-VIKLSGRELVRAQIAISGMSTWSKRSL-NH2), the Ki is 28.8 nM in data set [2] (setting [5]) and 1000 nM at RXFP1 [3] (setting [6]). For the same compound, the EC50 at RXFP1 [4] (setting [7]) was 3980 nM.
